ChEMBL document CHEMBL3390834, “Development of second generation epigenetic agents” (Medchemcomm, 2012)

Legend:
[1] = biological target: T1, Histone-arginine methyltransferase CARM1 (Homo sapiens, UniProt Q86X55); assay: Inhibition of full-length GST-tagged CARM-1 (unknown origin) expressed in Spodoptera frugiperda cells using histone H3 and tritiated-SAM as substrate
T1 sequence (Q86X55 whole entry): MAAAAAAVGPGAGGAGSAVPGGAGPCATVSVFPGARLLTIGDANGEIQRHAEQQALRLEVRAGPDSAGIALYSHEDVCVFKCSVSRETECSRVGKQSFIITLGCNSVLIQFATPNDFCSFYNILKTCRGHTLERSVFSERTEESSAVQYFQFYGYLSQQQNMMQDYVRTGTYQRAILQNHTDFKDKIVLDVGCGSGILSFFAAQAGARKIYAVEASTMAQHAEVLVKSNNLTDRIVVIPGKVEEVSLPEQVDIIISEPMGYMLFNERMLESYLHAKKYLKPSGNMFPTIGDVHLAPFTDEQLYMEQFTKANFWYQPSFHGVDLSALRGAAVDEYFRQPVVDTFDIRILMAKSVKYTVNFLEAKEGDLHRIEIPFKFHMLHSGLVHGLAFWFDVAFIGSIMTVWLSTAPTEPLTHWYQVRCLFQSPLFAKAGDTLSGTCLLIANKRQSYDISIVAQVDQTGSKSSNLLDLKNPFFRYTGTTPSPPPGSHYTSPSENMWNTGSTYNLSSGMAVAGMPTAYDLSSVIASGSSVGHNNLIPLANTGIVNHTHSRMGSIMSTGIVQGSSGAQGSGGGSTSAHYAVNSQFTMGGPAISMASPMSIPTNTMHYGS

[2] = Growth inhibition of human KYSE-150 cells after 48 hrs; type: functional; details: KYSE-150, 48 h
[3] = biological target: T1, Histone-arginine methyltransferase CARM1; assay: Inhibition of CARM-1 (unknown origin) using Histone H3 Arg-17 as substrate
[4] = Inhibition of HAT isolated from human HeLa cell nuclear extracts using biotinylated histone H4 peptide as substrate after 8 mins
[5] = Inhibition of DIM-5 (unknown origin)
[6] = biological target: T2, Histone acetyltransferase p300 (Homo sapiens, UniProt Q09472); assay: Inhibition of p300 (unknown origin)
T2 sequence (Q09472 whole entry): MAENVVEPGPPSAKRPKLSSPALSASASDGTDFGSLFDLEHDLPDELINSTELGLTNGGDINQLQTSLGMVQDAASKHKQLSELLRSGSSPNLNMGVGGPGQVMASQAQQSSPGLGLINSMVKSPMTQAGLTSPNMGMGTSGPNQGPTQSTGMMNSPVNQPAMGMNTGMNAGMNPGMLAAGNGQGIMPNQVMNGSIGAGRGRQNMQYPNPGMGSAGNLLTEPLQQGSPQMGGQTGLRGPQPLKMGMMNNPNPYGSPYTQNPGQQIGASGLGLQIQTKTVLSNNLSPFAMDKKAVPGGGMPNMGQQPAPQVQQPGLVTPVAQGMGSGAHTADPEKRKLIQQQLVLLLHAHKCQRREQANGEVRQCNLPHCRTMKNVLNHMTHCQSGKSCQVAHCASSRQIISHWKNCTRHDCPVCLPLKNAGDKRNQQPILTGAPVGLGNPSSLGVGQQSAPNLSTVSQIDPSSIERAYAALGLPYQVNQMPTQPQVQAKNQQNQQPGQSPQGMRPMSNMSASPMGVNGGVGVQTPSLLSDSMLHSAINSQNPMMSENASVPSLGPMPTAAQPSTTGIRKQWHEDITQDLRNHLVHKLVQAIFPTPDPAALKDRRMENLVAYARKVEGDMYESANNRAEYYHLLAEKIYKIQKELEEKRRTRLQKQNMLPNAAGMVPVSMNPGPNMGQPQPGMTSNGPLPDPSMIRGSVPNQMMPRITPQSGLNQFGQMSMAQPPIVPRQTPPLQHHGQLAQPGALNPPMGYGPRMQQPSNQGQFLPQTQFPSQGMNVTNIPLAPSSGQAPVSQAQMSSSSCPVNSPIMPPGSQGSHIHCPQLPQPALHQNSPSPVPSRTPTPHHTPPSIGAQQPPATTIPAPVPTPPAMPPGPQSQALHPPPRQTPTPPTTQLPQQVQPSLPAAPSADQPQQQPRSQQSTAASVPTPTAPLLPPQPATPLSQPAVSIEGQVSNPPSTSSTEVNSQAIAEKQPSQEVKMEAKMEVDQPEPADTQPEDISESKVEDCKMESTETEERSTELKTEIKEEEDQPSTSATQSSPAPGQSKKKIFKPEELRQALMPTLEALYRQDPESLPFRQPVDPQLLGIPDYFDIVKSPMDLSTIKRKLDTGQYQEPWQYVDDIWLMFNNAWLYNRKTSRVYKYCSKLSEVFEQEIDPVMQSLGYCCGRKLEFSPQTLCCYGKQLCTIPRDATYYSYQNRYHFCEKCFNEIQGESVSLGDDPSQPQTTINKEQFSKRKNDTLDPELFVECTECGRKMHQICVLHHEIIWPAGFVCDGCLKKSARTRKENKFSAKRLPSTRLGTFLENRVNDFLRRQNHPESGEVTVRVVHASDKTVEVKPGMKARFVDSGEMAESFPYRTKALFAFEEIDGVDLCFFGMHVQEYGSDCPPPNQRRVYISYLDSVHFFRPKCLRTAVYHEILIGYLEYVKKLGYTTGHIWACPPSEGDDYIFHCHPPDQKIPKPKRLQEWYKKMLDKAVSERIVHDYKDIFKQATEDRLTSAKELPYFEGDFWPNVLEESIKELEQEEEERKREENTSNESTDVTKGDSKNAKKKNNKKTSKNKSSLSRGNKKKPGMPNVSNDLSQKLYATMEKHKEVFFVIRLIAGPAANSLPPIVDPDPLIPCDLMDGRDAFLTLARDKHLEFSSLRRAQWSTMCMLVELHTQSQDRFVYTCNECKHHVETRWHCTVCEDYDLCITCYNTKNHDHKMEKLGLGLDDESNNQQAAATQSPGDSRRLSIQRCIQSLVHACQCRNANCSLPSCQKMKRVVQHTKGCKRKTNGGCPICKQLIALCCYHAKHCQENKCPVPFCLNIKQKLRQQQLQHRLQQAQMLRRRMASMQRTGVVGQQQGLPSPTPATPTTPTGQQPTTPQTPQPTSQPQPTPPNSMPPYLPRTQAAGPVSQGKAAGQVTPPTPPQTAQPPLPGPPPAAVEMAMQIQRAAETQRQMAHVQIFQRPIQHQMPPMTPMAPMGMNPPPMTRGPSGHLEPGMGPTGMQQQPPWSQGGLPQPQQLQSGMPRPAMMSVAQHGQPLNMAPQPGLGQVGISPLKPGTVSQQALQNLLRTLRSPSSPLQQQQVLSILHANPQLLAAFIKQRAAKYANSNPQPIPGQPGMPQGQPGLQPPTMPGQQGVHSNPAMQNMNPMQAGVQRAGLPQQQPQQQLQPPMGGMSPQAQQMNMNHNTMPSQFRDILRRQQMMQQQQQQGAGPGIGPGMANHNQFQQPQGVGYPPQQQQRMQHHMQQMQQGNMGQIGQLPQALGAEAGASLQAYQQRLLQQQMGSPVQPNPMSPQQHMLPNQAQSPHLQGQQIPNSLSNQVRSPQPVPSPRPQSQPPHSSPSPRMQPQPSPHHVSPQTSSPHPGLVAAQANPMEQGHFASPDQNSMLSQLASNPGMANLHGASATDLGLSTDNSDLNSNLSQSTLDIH

[7] = biological target: NAD-dependent protein deacetylase sirtuin-1 (Homo sapiens, UniProt Q96EB6); assay: Inhibition of recombinant human GST-tagged SIRT-1 using ZMAL as substrate after 4 hrs by homogeneous fluorescent deacetylase assay
Histone deacetylase 3 = Histone deacetylase 3 (Homo sapiens, UniProt O15379); assay: Inhibition of HDAC-3 (unknown origin) using (FAM)-labeled acetylated peptide as substrate after 17 hrs by fluorescence assay
Histone deacetylase 2 = Histone deacetylase 2 (Homo sapiens, UniProt Q92769); assay: Inhibition of HDAC-2 (unknown origin) using (FAM)-labeled acetylated peptide as substrate after 17 hrs by fluorescence assay
Histone deacetylase 1 = Histone deacetylase 1 (Homo sapiens, UniProt Q13547)
Chain of Histone deacetylase 1 (Q13547 whole entry): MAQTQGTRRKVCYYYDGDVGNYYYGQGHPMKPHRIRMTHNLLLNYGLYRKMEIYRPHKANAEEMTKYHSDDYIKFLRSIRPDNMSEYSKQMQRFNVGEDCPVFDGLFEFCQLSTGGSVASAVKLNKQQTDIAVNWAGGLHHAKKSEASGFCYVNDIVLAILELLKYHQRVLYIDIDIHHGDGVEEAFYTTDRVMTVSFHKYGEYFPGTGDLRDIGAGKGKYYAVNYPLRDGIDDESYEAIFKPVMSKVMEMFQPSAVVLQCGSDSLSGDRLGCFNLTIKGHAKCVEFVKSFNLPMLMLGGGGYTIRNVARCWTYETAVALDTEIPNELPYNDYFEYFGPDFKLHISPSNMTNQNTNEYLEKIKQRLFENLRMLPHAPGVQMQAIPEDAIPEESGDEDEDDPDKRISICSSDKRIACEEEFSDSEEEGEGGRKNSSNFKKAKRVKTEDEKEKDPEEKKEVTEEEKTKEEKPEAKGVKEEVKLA
Description: Inhibition of HDAC-1 (unknown origin) using (FAM)-labeled acetylated peptide as substrate after 17 hrs by fluorescence assay

Histone deacetylase [8] = assay: Inhibition of HDAC isolated from human HeLa cell nuclear extracts using Fluor de Lys as substrate after 30 mins by fluorescence assay; type: protein assay
Histone deacetylase [9] = assay: Inhibition of HDAC in human HeLa cells assessed as histone H3 hyperacetylation after 7 hrs; type: cell-based
Histone deacetylase [10] = assay: Inhibition of HDAC in human HeLa cells assessed as alpha-tubulin acetylation after 7 hrs; type: cell-based
[11] = biological target: Histone acetyltransferase KAT2B (Homo sapiens, UniProt Q92831); assay: Inhibition of FLAG epitope-tagged recombinant human PCAF expressed in baculovirus infected insect Sf21 cells using [3H]acetyl-CoA as substrate preincubated for 10 mins followed by substrate addition measured after 10 mins by liquid scintillation counting analysis
Chain of Histone acetyltransferase KAT2B (Q92831 whole entry): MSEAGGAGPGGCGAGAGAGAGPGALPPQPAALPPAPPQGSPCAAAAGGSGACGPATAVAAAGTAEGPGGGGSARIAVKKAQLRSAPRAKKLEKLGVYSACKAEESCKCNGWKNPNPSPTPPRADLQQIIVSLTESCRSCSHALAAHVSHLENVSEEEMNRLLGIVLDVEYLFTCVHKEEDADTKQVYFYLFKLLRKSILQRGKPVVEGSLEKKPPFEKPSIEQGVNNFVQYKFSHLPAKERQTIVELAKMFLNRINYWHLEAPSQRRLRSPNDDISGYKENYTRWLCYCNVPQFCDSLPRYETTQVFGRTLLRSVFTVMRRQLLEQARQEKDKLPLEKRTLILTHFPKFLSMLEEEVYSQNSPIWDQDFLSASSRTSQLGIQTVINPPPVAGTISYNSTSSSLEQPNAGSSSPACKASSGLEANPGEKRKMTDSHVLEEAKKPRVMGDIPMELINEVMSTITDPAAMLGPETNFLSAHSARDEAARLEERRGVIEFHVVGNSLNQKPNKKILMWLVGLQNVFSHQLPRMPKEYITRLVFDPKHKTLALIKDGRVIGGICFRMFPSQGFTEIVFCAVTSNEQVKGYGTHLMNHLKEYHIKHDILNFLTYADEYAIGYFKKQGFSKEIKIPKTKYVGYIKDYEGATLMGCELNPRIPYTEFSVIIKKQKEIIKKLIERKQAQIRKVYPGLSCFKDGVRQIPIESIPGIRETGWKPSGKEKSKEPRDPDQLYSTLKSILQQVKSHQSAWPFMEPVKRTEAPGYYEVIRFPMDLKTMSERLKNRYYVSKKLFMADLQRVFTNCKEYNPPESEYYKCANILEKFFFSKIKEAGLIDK

[12] = biological target: T2, Histone acetyltransferase p300; assay: biochemical
Description: Inhibition of His6-tagged recombinant full length p300 (unknown origin) expressed in baculovirus infected insect Sf21 cells using [3H]acetyl-CoA as substrate preincubated for 10 mins followed by substrate addition measured after 10 mins by liquid scintillation counting analysis

[13] = biological target: Histone-lysine N-methyltransferase SUV39H1 (Homo sapiens, UniProt O43463); assay: Inhibition of SUV39H1 (unknown origin) by DELFIA
[14] = biological target: Histone-lysine N-methyltransferase EHMT2 (Homo sapiens, UniProt Q96KQ7)
Description: Inhibition of recombinant GST-tagged G9a (685 to 1000 amino acids) (unknown origin) expressed in Escherichia coli BL21 using biotinylated histone H3 peptide as substrate by DELFIA

[15] = Inhibition of yeast Sir2p HAD activity using [3H]-acetylated histone H4 as substrate assessed as release of free [3H]-acetate after 16 hrs; design: species or system Saccharomyces cerevisiae
[16] = biological target: Lysine-specific histone demethylase 1A (Homo sapiens, UniProt O60341); assay: Inhibition of N-terminal His-6-tagged full length human LSD-1 expressed in Escherichia coli BL21 (DE3) using H3K4me2 peptide as substrate at 1 uM by Western blotting analysis relative to control
[17] = Half life in C57BL/6J mouse at 10 mg/kg, po; type: ADME, organism-based; design: dose 10 mg/kg, route oral; details: in vivo
[18] = biological target: T2, Histone acetyltransferase p300; assay: Inhibition of recombinant p300 (unknown origin) expressed in baculovirus expression system using [3H]acetyl-CoA as substrate preincubated for 10 mins followed by substrate addition measured after 10 mins by liquid scintillation counting analysis
[19] = biological target: Lysine-specific demethylase 4A (Homo sapiens, UniProt O75164); assay: Inhibition of JMJD2A (unknown origin) using ARK(me3)STGGK peptide as substrate preincubated for 1 to 30 mins followed by substrate addition by MALDI-TOF/MS analysis
Chain of Lysine-specific demethylase 4A (O75164 whole entry): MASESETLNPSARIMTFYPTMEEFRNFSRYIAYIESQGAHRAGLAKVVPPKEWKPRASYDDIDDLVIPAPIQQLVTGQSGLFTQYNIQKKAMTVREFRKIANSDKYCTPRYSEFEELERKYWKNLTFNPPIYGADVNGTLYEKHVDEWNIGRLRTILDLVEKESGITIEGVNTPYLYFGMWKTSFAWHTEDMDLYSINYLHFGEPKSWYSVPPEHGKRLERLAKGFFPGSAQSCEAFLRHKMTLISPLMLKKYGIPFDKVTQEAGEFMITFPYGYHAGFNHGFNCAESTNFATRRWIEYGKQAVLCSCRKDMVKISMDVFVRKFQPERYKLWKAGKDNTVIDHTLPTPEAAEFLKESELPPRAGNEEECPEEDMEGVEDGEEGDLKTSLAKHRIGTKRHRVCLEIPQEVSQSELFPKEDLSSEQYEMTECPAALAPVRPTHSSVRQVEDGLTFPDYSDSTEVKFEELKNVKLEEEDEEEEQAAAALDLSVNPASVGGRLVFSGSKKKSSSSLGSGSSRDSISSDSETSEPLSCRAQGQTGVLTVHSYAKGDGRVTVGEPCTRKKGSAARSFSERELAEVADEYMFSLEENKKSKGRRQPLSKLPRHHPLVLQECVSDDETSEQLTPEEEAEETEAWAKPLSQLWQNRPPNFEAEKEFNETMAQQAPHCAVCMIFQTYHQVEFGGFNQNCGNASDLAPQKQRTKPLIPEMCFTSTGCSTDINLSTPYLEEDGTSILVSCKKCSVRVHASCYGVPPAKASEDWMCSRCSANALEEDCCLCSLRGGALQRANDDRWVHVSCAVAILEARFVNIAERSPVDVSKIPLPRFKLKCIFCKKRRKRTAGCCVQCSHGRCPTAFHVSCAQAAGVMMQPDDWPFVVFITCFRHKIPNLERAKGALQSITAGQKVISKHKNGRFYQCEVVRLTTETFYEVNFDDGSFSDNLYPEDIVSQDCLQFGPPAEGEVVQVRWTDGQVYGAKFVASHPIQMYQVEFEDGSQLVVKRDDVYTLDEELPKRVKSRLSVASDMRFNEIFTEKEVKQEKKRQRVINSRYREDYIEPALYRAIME

[20] = biological target: T2, Histone acetyltransferase p300; assay: Inhibition of recombinant full length p300 (unknown origin) expressed in baculovirus infected insect Sf21 cells using [3H]acetyl-CoA as substrate
[21] = biological target: T2, Histone acetyltransferase p300; assay: Binding affinity to p300 (unknown origin) by ITC analysis

SMILES: C[C@H](N)C(=O)NCc1cccc(-n2nc(C(F)(F)F)cc2-c2nnc(-c3cccc4[nH]ccc34)o2)c1
- IC50 [1]: 0.027 µM

SMILES: COC(=O)/C=C/C(=O)N(O)CCCCNCc1ccc(COC(=O)Nc2cccc3ccccc23)cc1
- GI50 [2]: 5.1 µM

SMILES: O=c1oc2c(O)c(O)cc3c(=O)oc4c(O)c(O)cc1c4c23 [ELLAGIC ACID]
- IC50 [3]: 25 µM

SMILES: CCCCCCCCCCCCCC(Oc1cccc(OCc2ccccc2)c1)C(=O)O (stereo not given)
- IC50 [4]: 6 µM

SMILES: CN1C(=O)[C@@]23C[C@]4([C@]56C[C@@]78SS[C@@](CO)(C(=O)N7[C@H]5Nc5ccccc56)N(C)C8=O)c5ccccc5N[C@@H]4N2C(=O)[C@]1(CO)SS3 [CHAETOCIN]
- IC50 [5]: 3 µM

SMILES: CC(=O)N[C@@H](CCCCNC(=O)CSCCNC(=O)CCNC(=O)[C@H](O)C(C)(C)COP(=O)(O)OP(=O)(O)OC[C@H]1O[C@@H](n2cnc3c(N)ncnc32)[C@H](O)[C@@H]1OP(=O)(O)O)C(N)=O
- Ki [6]: 0.019 µM

SMILES: O=C1NC(=S)NC(=O)C1=Cc1cc2ccccc2[nH]1
- IC50 [7]: 5.9 µM

SMILES: Nc1ccccc1NC(=O)CCCCCCC(=O)Nc1ccccc1N
- IC50 (Histone deacetylase 3): 0.988 µM
- IC50 (Histone deacetylase 2): 4.8 µM
- IC50 (Histone deacetylase 1): 14.6 µM

SMILES: CC(=O)SCC(=O)c1ccc(NS(=O)(=O)c2ccc(OCCCN(C)C)cc2)nc1
- IC50 (Histone deacetylase [8]): 0.045 µM
- EC50 (Histone deacetylase [9]): 0.025 µM
- EC50 (Histone deacetylase [10]): 0.325 µM

SMILES: CCCCCCCCCCCCCCCc1cccc(O)c1C(=O)O [ANACARDIC ACID]
- IC50 [11]: 5 µM
- IC50 [12]: 8.5 µM

SMILES: COc1ccc(C(=O)Oc2ccc(CCn3c(NC(=O)c4ccc(C(F)(F)F)cc4)nc4cc(C(=O)O)ccc43)cc2)cc1
- IC50 [13]: 1.1 µM
- IC50 [14]: 4.7 µM

SMILES: O=C1CCc2c(ccc3ccccc23)O1 [SPLITOMICIN]
- IC50 [15]: 60 µM

SMILES: C/N=C(\NC)NCCCNCCCNCCCN/C(=N/C)NC
- inhibition [16]: > 50%

SMILES: Nc1ccccc1NC(=O)CCCCCCC(=O)Nc1cccc(-c2cn(-c3ccccc3)nn2)c1
- IC50 (Histone deacetylase 1): > 30 µM

SMILES: NC(=O)C1CCCc2c1[nH]c1ccc(Cl)cc21 (stereo not given)
- half-life [17]: 2 h

SMILES: COc1cc(C(=O)C2=C3OC(C)(C)[C@@H](CC=C(C)C)C[C@@]34C[C@@H](CC=C(C)C)C(C)(C)[C@@](CC=C(C)C)(C2=O)C4=O)ccc1O
- IC50 [18]: 5 µM

SMILES: CCNC(=S)SSC(=S)NCC
- IC50 [19]: 15.3 µM

SMILES: CC1=CC(=O)c2c(O)cccc2C1=O [PLUMBAGIN]
- IC50 [20]: 2 µM
- Kd [21]: 2 µM
